ChEMBL document CHEMBL4265987, “Identification of inhibitors of the E. coli chaperone SurA using in silico and in vitro techniques” (Bioorg Med Chem Lett, 2018)
Active and inactive are the calls of the source. The rule behind the calls is not given here. Peptide text beside a SMILES is read from it.

Experiments:
Chaperone SurA [1] = biological target: T1, Chaperone SurA (Escherichia coli (strain K12), UniProt P0ABZ6); assay: Inhibition of rhodamine-WEYIPNV binding to Escherichia coli SurA by fluorescence anisotropy
T1 sequence (P0ABZ6 whole entry): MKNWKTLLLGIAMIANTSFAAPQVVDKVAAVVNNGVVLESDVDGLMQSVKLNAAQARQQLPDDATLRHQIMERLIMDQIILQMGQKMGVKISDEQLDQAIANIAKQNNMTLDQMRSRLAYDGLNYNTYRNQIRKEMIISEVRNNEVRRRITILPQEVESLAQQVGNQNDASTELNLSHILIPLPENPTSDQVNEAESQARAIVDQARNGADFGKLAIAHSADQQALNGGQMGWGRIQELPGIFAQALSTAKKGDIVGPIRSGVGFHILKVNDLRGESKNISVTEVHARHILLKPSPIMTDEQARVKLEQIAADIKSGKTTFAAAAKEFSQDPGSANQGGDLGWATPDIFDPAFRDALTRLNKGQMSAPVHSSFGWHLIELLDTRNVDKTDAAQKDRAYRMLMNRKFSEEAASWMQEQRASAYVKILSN

[2] = Binding affinity to Rhodamine-WEYIPNV up to 3 uM by fluorescence anisotropy
[3] = biological target: T2, Chaperone SurA (Escherichia coli (strain K12)) (UniProt P0ABZ6); details: up to 3 µM
T2 sequence (whole entry): T1 sequence (P0ABZ6 whole entry)
Description: Inhibition of rhodamine-WEYIPNV binding to Escherichia coli SurA up to 3 uM by fluorescence anisotropy

[4] = biological target: T2, Chaperone SurA (Escherichia coli (strain K12)); assay: Inhibition of rhodamine-WEYIPNV binding to Escherichia coli SurA up to 2.5 uM by fluorescence anisotropy
[5] = biological target: T2, Chaperone SurA (Escherichia coli (strain K12)); assay: Binding affinity to Escherichia coli SurA at 5 nM by fluorescence anisotropy
Chaperone SurA [6] = biological target: T1, Chaperone SurA; assay: Inhibition of rhodamine-WEYIPNV binding to Escherichia coli SurA in presence of 0.01% Triton-X-100 by fluorescence anisotropy
[7] = biological target: T2, Chaperone SurA (Escherichia coli (strain K12)); assay: Inhibition of rhodamine-WEYIPNV binding to Escherichia coli SurA up to 2 uM by fluorescence anisotropy
[8] = biological target: T2, Chaperone SurA (Escherichia coli (strain K12)); assay: Inhibition of rhodamine-WEYIPNV binding to Escherichia coli SurA up to 1.5 uM by fluorescence anisotropy

## O=C(N[C@@H](Cc1ccccc1)C(=O)O)OCC1c2ccccc2-c2ccccc21
Chaperone SurA [1]
  IC50: 152 µM
[2]
  Activity: inactive

## N[C@@H](Cc1cnc[nH]1)C(=O)NCC(=O)NCC(=O)O (H-His-Gly-Gly-OH)
[3]
  inhibition: inactive

## O=C(O)CCNC(=O)OCC1c2ccccc2-c2ccccc21
[4]
  inhibition: inactive

## H-KQAGNV-OH
[3]
  inhibition: inactive

## O=C1OC2(c3ccc(O)cc3Oc3cc(O)ccc32)c2ccccc21
[5]
  Activity: Active

## O=C1OC2(c3ccc(O)cc3Oc3cc(O)ccc32)c2ccc(N3C(=O)C=CC3=O)cc21
[4]
  inhibition: inactive

## C[C@H](NC(=O)OCC1c2ccccc2-c2ccccc21)C(=O)O
[4]
  inhibition: inactive

## O=C(N[C@H](Cc1ccc2ccccc2n1)C(=O)O)OCC1c2ccccc2-c2ccccc21
Chaperone SurA [1]
  IC50: 57 µM
[2]
  Activity: inactive
Chaperone SurA [6]
  IC50: 37.4 µM

## CC[C@H](C)[C@H](NC(=O)[C@H](Cc1ccc(O)cc1)NC(=O)[C@H](CCC(=O)O)NC(=O)[C@@H](N)Cc1c[nH]c2ccccc12)C(=O)N1CCC[C@H]1C(=O)N[C@@H](CC(N)=O)C(=O)N[C@H](C(=O)O)C(C)C
Chaperone SurA [1]
  IC50: 2.66 µM

## O=C(N[C@@H](Cc1c[nH]c2ccccc12)C(=O)O)OCC1c2ccccc2-c2ccccc21
Chaperone SurA [1]
  IC50: 23.3 µM
[2]
  Activity: inactive

## O=C(N[C@@H](Cc1ccc(O)cc1)C(=O)O)OCC1c2ccccc2-c2ccccc21
[4]
  inhibition: inactive

## O=C(OCC1c2ccccc2-c2ccccc21)N1CCC[C@H]1C(=O)n1nnc2ccccc21
[7]
  inhibition: inactive

## c1cc(C2=N[C@H]3c4ccccc4C[C@H]3O2)nc(C2=N[C@H]3c4ccccc4C[C@H]3O2)c1
[8]
  inhibition: inactive

## CC[C@H](C)[C@H](NC(=O)OCC1c2ccccc2-c2ccccc21)C(=O)O
[4]
  inhibition: inactive

## CN1/C(=C\C=C2/CCC(/C=C/C3=[N+](C)c4ccccc4C3(C)C)=C2Cl)C(C)(C)c2ccccc21
[7]
  inhibition: inactive
